What was measured:
Assay type in all cases: in vivo, C57BL/6J male mice
[1] = Experimental Example 2: mice fed 10/20/40/60% protein energy diets with or without 3% lysine hydrochloride for 4 weeks; details: after 4 weeks, vs respective diet without lysine supplementation
From the text: The following feeding stuffs were respectively provided for 4 weeks to 8 groups of 9-week-old C57BL/6J male mice, consisting of 10 individuals per group (n=10): (1) 10% protein energy diet (LP; dietary energy composition ratio was protein:fat:carbohydrate=1:1:8), (2) 10% protein energy diet supplemented with lysine hydrochloride (LPK), (3) 20% protein energy diet (LF; protein:fat:carbohydrate=2:1:7), (4) 20% protein energy diet supplemented with lysine hydrochloride (LFK), (5) 40% protein energy diet (MP; protein:fat:carbohydrate =4:1:5), (6) 40% protein energy diet supplemented with lysine hydrochloride (MPK), (7) 60% protein energy diet (HP; protein:fat:carbohydrate=6:1:3), and (8) 60% protein energy diet supplemented with lysine hydrochloride (HPK). The diets, when supplemented with lysine hydrochloride, were added with 3% lysine hydrochloride.
After 4 weeks the experimental period, the body weight, the total fat weight(sum of epididymal fat, perirenal fat, mesenteric fat, and subcutaneous fat in the periphery of the femoral region), and the kidney weight were measured. Statistical analysis was performed using Dunnett's test, employing the respective groups fed with the diets without lysine supplementation as the controls.

[2] = Experimental Example 3: mice fed high fat feed supplemented with lysine hydrochloride, triglyceride concentration in blood plasma
From the text: The following diets were respectively provided for 8 weeks to 4 groups of 9-week-old C57BL/6J male mice, consisting of 10 individuals per group (n=10): (1) 20% protein energy diet (LF; dietary energy composition ratio was protein:fat:carbohydrate=2:7:1), (2) high fat feed (HF; protein:fat:carbohydrate=17:46:37), (3) high fat food supplemented with 1% lysine hydrochloride (HF1K; containing 1% lysine hydrochloride (0.8% lysine base)), and (4) high fat feed supplemented with 3% lysine hydrochloride (HF3K; containing 3% lysine hydrochloride (2.4% lysine base)).
After 8 weeks of the experimental period, the triglyceride concentration in the blood plasma was measured. Statistical analysis was performed using Dunnett's test employing the HF group as the control.

[3] = Experimental Example 1: high fat diet-induced obese mice fed a 20% protein energy diet supplemented with lysine hydrochloride for 8 weeks
From the text: A high fat diet (dietary energy composition ratio was protein:fat:carbohydrate=17:46:37) was provided for 16 weeks to 30 5-week-old C57BL/6J male mice. At the 16th week, the 30 mice were divided into 3 groups, each consisting of 10 individuals (n=10), and from then, the following diets were provided for 8 weeks to the 3 groups, respectively, (1) 20% protein energy diet (LF; protein:fat:carbohydrate=2:7:1), (2) 20% protein energy diet supplemented with 1% lysine hydrochloride (LF1K; containing 1% lysine hydrochloride (0.8% lysine base)), and (3) 20% protein energy diet supplemented with 3% lysine hydrochloride (LF3K; containing 3% lysine hydrochloride (2.4% lysine base)). Herein, the term “lysine base” refers to free-form lysine. Further, as a nonobese group, a group (LL) was prepared consisting of 10 mice of the same species that were fed with 20% protein energy diet (protein:fat:carbohydrate=2:7:1) from the start of the experiment until the end, i.e., for 24 weeks.
The food intakes were measured and the energy intakes were determined from the energy per g of each test diet. After 8 weeks of the experimental period, the body weight and the total fat weight (sum of epididymal fat, perirenal fat, mesenteric fat, and subcutaneous fat in the periphery of the femoral region) were measured. Statistical analysis was performed using Dunnett's test employing the LF group as the control.

[4] = after 8 weeks, 1% or 3% lysine hydrochloride in 20% protein energy diet, vs LF group, Dunnett's test p<0.05, dose-dependent
[5] = mice, feeding stuff having 20% protein energy, lysine component(s) 0.8 to 3.0 wt % on the dry matter basis

Cl.NCCCC[C@H](N)C(=O)O [lysine hydrochloride, L-Lysine hydrochloride]
total fat weight [1]: decrease
body weight ([1]; Dunnett's test p<0.05): decrease
increase in the triglyceride concentration in the blood plasma due to intake of the high fat diet ([2]; after 8 weeks, 1% or 3% lysine hydrochloride in high fat feed, vs HF group, Dunnett's test p<0.05): significantly inhibited
improvement effect for hyperlipidemia ([2]; mice, lysine component(s) 0.8 to 3.0 wt % on the dry matter basis): improvement effect for hyperlipidemia was exhibited
body weight upon the autopsy [3, 4]: significant decrease
total fat weight (sum of epididymal, perirenal, mesenteric and femoral subcutaneous fat) [3, 4]: significant decrease
increase in body fat [3, 5]: suppressed
increase in body weight [3, 5]: suppressed
